Test results published in ChEMBL document CHEMBL1201862, “PubChem BioAssay data set” (2004).
Activity calls are given as the source filed them.

How the values were obtained:
[1] = target: T1, Cytochrome P450 1A2 (Homo sapiens, UniProt P05177);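 further: PubChem cytochrome P450 panel assay, CYP1A2 panel member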
T1 sequence (P05177 whole entry): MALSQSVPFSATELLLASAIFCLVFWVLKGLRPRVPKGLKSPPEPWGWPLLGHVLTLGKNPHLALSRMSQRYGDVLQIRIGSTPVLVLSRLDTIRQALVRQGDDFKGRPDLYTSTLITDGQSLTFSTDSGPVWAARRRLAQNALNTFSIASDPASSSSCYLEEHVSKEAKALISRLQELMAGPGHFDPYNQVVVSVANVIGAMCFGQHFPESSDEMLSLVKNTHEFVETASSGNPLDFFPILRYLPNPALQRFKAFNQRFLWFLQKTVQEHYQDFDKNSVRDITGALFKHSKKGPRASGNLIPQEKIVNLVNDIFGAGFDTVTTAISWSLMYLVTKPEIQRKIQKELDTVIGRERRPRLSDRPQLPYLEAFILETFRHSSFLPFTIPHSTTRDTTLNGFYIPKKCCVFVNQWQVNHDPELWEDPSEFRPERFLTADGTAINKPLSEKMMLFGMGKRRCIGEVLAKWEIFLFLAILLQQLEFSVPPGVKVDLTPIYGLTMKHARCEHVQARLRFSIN

[2] = target: Cytochrome P450 3A4 (Homo sapiens, UniProt P08684);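 further: CYP3A4 tested as one member of a cytochrome P450 panel screen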
Chain of Cytochrome P450 3A4 (P08684 whole entry): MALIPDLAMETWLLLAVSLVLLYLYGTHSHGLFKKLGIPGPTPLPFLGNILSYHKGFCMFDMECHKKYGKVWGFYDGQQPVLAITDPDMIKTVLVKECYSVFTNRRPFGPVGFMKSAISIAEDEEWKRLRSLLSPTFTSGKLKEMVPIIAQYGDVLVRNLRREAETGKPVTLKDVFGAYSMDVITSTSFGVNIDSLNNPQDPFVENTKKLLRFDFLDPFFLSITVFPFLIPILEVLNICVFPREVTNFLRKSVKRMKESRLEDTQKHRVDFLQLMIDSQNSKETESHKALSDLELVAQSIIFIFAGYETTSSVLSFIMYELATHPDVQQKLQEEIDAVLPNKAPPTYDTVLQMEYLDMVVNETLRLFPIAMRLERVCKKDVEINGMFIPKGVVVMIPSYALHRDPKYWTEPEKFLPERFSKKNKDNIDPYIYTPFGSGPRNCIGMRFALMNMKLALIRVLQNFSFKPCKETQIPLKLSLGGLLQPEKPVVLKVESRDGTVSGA

[3] = inhibitors of intracellular T. cruzi replication, confirmation, NIH3T3 host cells, beta-gal luminescence (AID 2044); format: functional, cell-based;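 further: intracellular parasites grown in NIH/3T3 mouse fibroblasts as host cells; luminescent beta-galactosidase reporter signal from transgenic T. cruzi replicating inside host cells; inhibitors lower the luminescence signal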
[4] = target: T2, Estrogen receptor (Homo sapiens, UniProt P03372);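 further: potency for inhibiting coactivator peptide recruitment to the receptor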
T2 sequence (P03372 whole entry): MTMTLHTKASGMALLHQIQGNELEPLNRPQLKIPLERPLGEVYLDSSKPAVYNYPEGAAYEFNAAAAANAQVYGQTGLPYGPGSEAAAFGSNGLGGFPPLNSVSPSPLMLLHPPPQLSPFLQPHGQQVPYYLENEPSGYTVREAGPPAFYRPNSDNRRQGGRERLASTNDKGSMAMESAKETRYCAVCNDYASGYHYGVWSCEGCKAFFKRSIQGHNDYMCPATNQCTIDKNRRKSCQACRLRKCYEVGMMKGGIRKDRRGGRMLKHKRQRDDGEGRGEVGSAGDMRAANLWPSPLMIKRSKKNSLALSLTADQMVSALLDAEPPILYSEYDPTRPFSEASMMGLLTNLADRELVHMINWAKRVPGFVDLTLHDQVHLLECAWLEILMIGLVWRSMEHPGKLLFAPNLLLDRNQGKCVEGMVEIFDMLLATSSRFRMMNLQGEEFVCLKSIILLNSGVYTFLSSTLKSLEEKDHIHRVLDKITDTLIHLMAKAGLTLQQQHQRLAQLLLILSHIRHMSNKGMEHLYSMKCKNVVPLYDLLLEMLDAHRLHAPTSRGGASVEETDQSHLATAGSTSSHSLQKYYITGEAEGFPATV

[5] = cytotoxicity toward NIH3T3 fibroblasts, dose response, counter-screen, cell-based, ATP luminescence, mouse fibroblasts (AID 2010); format: functional;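 further: cells exposed to compound for about 90 hours before reading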
[6] = target: T3, RNA-binding protein pos-1 (Caenorhabditis elegans, UniProt G5EF15); experiment: inhibitors of POS-1/mex-3 RNA binding, dose response, biochemical, fluorescence polarization (AID 1964);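 further: purified POS-1 fused to maltose binding protein made in E. coli; potency of compounds blocking POS-1 binding to fluorescent RNA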
T3 sequence (G5EF15 whole entry): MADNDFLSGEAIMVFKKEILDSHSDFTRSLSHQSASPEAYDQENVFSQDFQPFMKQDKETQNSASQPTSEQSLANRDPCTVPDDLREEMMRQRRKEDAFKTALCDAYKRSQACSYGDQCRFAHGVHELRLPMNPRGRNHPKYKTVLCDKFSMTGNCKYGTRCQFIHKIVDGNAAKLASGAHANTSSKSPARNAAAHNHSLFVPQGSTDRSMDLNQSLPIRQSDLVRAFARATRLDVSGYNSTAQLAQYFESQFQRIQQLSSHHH

[7] = target: T4, Zinc finger protein mex-5 (Caenorhabditis elegans, UniProt Q9XUB2); experiment: MEX-5/TCR-2 RNA interaction inhibitors, dose response, biochemical, C. elegans, fluorescence polarization (AID 1960)
T4 sequence (Q9XUB2 whole entry): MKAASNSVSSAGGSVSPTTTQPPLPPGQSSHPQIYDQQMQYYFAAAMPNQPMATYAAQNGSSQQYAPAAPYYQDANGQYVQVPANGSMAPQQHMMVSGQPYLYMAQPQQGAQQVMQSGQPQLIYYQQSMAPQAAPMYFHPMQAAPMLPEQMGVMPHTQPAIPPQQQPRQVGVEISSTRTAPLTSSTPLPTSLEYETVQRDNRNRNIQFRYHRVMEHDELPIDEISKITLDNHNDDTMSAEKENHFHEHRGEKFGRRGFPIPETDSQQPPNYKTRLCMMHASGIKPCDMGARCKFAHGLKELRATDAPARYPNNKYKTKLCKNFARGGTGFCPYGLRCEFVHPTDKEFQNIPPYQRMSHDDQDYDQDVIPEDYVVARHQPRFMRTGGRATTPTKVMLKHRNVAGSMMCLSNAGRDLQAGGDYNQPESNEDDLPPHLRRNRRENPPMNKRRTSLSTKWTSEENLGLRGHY

[8] = target: Nonstructural protein 1 (Influenza A virus, UniProt Q194T2); format: functional, Influenza A virus (A/California/07/2009(H1N1))
Chain of Nonstructural protein 1 (Q194T2 whole entry): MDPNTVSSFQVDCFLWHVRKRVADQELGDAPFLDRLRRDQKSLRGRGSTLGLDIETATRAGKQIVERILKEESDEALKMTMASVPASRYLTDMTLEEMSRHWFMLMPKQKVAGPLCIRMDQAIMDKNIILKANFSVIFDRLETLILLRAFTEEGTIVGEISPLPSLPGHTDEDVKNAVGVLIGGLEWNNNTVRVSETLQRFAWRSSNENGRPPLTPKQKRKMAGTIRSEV

[9] = target: Cytochrome P450 2C9 (Homo sapiens, UniProt P11712)
Chain of Cytochrome P450 2C9 (P11712 whole entry): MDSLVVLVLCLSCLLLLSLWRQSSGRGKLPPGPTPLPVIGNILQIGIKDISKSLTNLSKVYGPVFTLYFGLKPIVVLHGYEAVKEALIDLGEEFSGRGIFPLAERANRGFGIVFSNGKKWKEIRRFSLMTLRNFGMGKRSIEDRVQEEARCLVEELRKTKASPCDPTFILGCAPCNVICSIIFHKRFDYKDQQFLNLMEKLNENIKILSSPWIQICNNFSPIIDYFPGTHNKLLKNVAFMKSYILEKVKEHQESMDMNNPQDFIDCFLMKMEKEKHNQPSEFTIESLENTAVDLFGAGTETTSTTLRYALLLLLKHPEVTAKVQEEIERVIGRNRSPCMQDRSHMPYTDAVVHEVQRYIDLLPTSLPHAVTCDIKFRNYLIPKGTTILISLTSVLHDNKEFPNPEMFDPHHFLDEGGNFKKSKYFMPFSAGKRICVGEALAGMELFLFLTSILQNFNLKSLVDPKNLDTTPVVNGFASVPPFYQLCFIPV

[10] = target: T5, Long-chain-fatty-acid--AMP ligase FadD28 (Mycobacterium tuberculosis, UniProt P9WQ59); experiment: Fluorescence polarization aasay to screen for inhibitors that compete for the binding of FadD28 to a bisubstrate Measured in Biochemical System Using Plate Reader - 2147-01_Inhibitor_Dose_CherryPick_Activity.; format: functional, Mycobacterium tuberculosis H37Rv
T5 sequence (P9WQ59 whole entry): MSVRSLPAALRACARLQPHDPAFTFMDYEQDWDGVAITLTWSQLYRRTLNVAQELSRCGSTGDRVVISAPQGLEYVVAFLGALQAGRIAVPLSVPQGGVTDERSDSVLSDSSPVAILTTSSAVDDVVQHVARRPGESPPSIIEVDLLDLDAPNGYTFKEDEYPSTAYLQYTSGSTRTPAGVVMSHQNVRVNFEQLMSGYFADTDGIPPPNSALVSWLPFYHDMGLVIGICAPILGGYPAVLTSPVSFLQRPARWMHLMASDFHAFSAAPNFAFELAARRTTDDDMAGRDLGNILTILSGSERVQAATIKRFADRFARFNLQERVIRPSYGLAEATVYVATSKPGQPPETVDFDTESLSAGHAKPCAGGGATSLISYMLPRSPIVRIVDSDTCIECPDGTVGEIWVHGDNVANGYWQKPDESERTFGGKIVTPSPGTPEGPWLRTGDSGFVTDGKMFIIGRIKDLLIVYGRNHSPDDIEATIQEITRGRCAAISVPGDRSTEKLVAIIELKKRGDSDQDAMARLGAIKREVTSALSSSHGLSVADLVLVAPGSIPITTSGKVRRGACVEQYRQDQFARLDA

[11] = tested on: INS1; experiment: beta cell apoptosis inhibitors, cytokine rescue, dose response, luminescence, retest (AID 449756); format: functional, cell-based; details: Rattus norvegicus;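 further: cell death triggered by IL-1 beta plus TNF-alpha plus IFN-gamma mixture; protective hits raise ATP signal compared with cytokine alone wells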
[12] = target: T6, Heat shock factor protein 1 (Mus musculus, UniProt P38532); experiment: HSF1 potentiators in luciferase reporter cells, confirmation, cell-based, NIH3T3, luminescence, dose retest (AID 435004); format: functional;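 further: stress induced by proteasome inhibitor MG132 added 30 min after compound; luciferase reporter driven by HSF1 response element in NIH3T3 cells; actives raise luminescence as potentiators of the MG132 stress response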
T6 sequence (P38532 whole entry): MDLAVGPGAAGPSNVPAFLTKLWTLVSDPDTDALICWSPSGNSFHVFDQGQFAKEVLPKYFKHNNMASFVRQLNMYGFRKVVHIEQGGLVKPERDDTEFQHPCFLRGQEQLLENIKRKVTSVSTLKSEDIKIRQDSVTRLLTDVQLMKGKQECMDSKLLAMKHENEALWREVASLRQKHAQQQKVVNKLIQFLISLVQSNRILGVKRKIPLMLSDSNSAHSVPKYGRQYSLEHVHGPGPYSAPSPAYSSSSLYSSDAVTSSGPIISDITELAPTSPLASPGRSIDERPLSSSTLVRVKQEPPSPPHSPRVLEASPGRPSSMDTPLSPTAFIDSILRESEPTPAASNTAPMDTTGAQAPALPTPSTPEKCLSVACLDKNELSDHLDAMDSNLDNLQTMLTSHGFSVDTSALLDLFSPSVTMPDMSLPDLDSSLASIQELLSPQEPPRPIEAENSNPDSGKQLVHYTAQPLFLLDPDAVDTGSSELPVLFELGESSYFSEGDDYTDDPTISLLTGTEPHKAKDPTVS

For `O=C(c1cccc(F)c1)N1CCC2(CC1)CCN(c1cccc(-c3ccccc3)c1)CC2`, the AC50 [1] was 20 µM (inconclusive) and the AC50 [2] was “inconclusive”.

With `N=c1c(C(=O)NCc2ccc(F)cc2)cc2c(=O)n3ccccc3nc2n1Cc1cccnc1` the EC50 [3] was 1.22 µM (active), the IC50 [4] was 7.04 µM (active) and the EC50 [5] was > 60 µM (not active). For the same molecule, the EC50 [6] was 31.2 µM (inconclusive) and the EC50 [7] was 46 µM (active).

In the case of `COc1cc(OC)c2c(-c3ccccc3)cc(=O)oc2c1C(CCN1CCCCC1)c1ccc(N(C)C)cc1` (centres undefined), the IC50 [8] is reported as 11.9 µM (active).

In the case of `Cc1cccc(C)c1NC(=O)CN1CCN(CCCC(c2ccc(F)cc2)c2ccc(F)cc2)CC1` [LIDOFLAZINE], the AC50 [1] is reported as 15.8 µM (inconclusive), the AC50 [9] is reported as 15.8 µM (inconclusive) and the AC50 [2] is reported as “inconclusive”.

With `O=C(NCCSCc1ccccc1)c1ccc(Cl)c(S(=O)(=O)N2CCOCC2)c1` the AC50 [10] was > 100 µM (inactive).

In the case of `COc1cccc2cc(-c3cn4ccc(C)cc4n3)c(=O)oc12`, the IC50 [4] is reported as 7.85 µM (active).

For `CCOc1ccccc1/C=c1\sc2nc(-c3ccco3)nn2c1=O`, the IC50 [4] was > 50 µM (not active).

With `N=c1c2c(-c3ccccc3)c(-c3ccccc3)n(Cc3ccco3)c2ncn1CCCN1CCOCC1` the EC50 [3] was 1.49 µM (active), the AC50 [11] was 14.3 µM (active) and the EC50 [5] was > 60 µM (not active). The AC50 [10] was 77.3 µM (active) and the EC50 [12] was > 260 µM (inactive).
